Here are results for eight molecules from ChEMBL document CHEMBL1125856, “The Interaction of Anhydroalditols with Sweet-Almond -glucosidase and Escherichia coli -galactosidase: implications for the design of potent glycosidase inhibitors” (Bioorg Med Chem Lett, 1991).

The target in data set [1] is T1, Beta-galactosidase (Escherichia coli, UniProt Q8VNN2). Briefly: Compound was evaluated for its binding affinity towards E-coli Beta-galactosidase.
Data set [2] is described as follows: Ratio of binding affinity towards E-coli beta - galactosidase to that of km/kcat was determined.
A short description of data set [3]: Ratio of binding affinity towards E-coli beta - galactosidase to that of Michaelis-Menten constant against E-coli beta-galactosidase.
In data set [4] the target is T2, Beta-glucosidase (Prunus avium) (UniProt Q43014).
T2 sequence (whole entry): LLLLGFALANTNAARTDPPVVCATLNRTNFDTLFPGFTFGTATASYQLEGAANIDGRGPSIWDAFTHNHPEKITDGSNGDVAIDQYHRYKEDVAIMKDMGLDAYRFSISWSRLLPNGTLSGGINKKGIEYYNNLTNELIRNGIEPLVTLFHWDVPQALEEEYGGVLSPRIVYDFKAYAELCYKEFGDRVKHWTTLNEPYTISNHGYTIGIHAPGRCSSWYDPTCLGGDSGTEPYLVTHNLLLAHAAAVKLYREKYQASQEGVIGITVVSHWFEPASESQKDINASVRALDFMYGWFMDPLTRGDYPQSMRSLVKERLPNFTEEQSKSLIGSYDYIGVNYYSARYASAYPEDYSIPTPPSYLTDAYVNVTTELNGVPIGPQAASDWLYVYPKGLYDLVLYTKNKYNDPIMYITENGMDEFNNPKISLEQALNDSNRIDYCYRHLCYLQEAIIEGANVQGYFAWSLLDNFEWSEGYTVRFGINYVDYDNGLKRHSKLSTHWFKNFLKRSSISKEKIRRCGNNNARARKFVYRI
Briefly: (§1) Kinetic parameter Km/Kcat against Beta-glucosidase. Conditions: Prunus dulcis. The arrangement: unit not given here.

For data set [5], the target named is T1, Beta-galactosidase. As to the kind of experiment: Compound was evaluated for its binding affinity towards Beta-galactosidase.
For data set [6], the target named is T2, Beta-glucosidase (Prunus avium). The description is as §1. Conditions: Prunus dulcis.
Substrate in data set [7]: OC[C@H]1OC[C@@H](O)[C@@H]1O
Briefly: (§2) Michaelis-Menten constant against sweet almond Beta-glucosidase.

Substrate in data set [8]: OC[C@H]1OC[C@@H](O)[C@H]1O
The data set is described as §2.

Substrate in data set [9]: OC[C@H]1OC[C@H](O)[C@@H](O)[C@@H]1O
Described as §2.

Substrate in data set [10]: OC[C@H]1OC[C@H](O)[C@@H](O)[C@H]1O
The description is as §2.

Substrate in data set [11]: O[C@@H]1COC[C@H]1O
The data set is described as §2.

Substrate in data set [12]: O[C@H]1[C@H](O)COC[C@@H]1O
Described as §2.

T1 sequence (Q8VNN2 whole entry): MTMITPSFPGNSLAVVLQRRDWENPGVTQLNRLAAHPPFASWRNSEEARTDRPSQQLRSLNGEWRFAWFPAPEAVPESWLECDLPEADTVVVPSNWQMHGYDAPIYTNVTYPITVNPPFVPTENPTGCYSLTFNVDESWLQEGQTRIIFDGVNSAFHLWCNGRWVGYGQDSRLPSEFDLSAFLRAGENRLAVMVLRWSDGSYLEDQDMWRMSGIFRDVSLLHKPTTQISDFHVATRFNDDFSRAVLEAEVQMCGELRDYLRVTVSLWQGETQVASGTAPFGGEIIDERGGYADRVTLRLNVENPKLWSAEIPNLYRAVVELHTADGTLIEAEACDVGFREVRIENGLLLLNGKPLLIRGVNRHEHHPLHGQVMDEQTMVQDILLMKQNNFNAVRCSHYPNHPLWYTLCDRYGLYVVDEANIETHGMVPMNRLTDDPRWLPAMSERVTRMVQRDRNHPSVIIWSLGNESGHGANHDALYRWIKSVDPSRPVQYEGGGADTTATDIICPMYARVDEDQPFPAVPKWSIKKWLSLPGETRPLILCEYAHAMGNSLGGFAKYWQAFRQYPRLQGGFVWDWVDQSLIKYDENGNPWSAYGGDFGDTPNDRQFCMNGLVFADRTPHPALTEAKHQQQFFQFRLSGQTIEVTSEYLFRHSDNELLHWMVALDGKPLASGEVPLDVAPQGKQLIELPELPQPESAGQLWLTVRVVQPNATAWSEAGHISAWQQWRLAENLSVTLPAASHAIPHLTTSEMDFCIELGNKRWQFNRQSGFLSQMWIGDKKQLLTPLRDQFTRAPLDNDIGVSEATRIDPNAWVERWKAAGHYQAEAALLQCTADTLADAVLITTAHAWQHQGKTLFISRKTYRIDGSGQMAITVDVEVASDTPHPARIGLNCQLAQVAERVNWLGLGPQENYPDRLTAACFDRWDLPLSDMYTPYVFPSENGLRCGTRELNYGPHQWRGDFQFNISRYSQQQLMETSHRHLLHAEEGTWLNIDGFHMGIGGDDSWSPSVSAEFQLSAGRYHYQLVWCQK

For `OC[C@H]1OC[C@@H](O)[C@H]1O`, the Ki (as a rule, the dissociation constant of the complex between target and ligand, obtained from inhibition or displacement) at Beta-galactosidase [1] was determined as 1.9 mM. In addition, the Ki/(Km/Kcat) in [2] is 1e+08. The Ki/Km in data set [3] is 39.6.

`O[C@@H]1COC[C@H]1O` showed a Ki on Beta-galactosidase [1] of 77 mM. Also, the Ki/(Km/Kcat) in data set [2] came out at 77. For the same molecule, the Ki/Km in [3] was 5.1. The Km/Kcat in data set [4] was 1.

`OC[C@H]1OC[C@@H](O)[C@@H]1O`: at Beta-galactosidase [5], the Ki was found to be 51 mM. For the same molecule, in data set [2], the Ki/(Km/Kcat) was 240. Moreover, in data set [3], the Ki/Km turned out to be 1.6.

Turning to `O[C@H]1[C@H](O)COC[C@@H]1O`, the inhibition constant Ki at Beta-galactosidase [1] turned out to be 85 mM. In addition, the Ki/(Km/Kcat) in data set [2] was determined as 85. Moreover, in data set [3], the Ki/Km stood at 15.6. In addition, in [4], the Km/Kcat came out at 1.

Turning to `OC[C@H]1OC[C@H](O)[C@@H](O)[C@H]1O`, the affinity at Beta-galactosidase [1] corresponds to a Ki of 7.4 mM. Further, in data set [2], the Ki/(Km/Kcat) was determined as 3.9e+08. Besides, in [3], the Ki/Km stood at 154.

In the case of `C[C@H]1OC[C@H](O)[C@@H](O)[C@H]1O`, the Ki/(Km/Kcat) in data set [2] amounted to 630000. Besides, in [3], the Ki/Km stood at 1.2. In [4], the Km/Kcat amounted to 6.7e-05.

Turning to `OC[C@H]1OC[C@H](O)[C@@H](O)[C@@H]1O` [1,5-Anhydrosorbitol], at Beta-galactosidase [1], the affinity corresponds to a Ki of 71 mM. The Ki/(Km/Kcat) in data set [2] was determined as 330. The Ki/Km in data set [3] amounted to 2.2. Further, the values for the Km/Kcat in [4] and in data set [6] were 0.21 and 0.019, respectively.

B1: Beta-glucosidase (Prunus avium), Q43014 (protein)
chain: LLLLGFALANTNAARTDPPVVCATLNRTNFDTLFPGFTFGTATASYQLEGAANIDGRGPSIWDAFTHNHPEKITDGSNGDVAIDQYHRYKEDVAIMKDMGLDAYRFSISWSRLLPNGTLSGGINKKGIEYYNNLTNELIRNGIEPLVTLFHWDVPQALEEEYGGVLSPRIVYDFKAYAELCYKEFGDRVKHWTTLNEPYTISNHGYTIGIHAPGRCSSWYDPTCLGGDSGTEPYLVTHNLLLAHAAAVKLYREKYQASQEGVIGITVVSHWFEPASESQKDINASVRALDFMYGWFMDPLTRGDYPQSMRSLVKERLPNFTEEQSKSLIGSYDYIGVNYYSARYASAYPEDYSIPTPPSYLTDAYVNVTTELNGVPIGPQAASDWLYVYPKGLYDLVLYTKNKYNDPIMYITENGMDEFNNPKISLEQALNDSNRIDYCYRHLCYLQEAIIEGANVQGYFAWSLLDNFEWSEGYTVRFGINYVDYDNGLKRHSKLSTHWFKNFLKRSSISKEKIRRCGNNNARARKFVYRI
With B1, the Michaelis constant (Km) – broadly, the substrate concentration at which the rate is half of its maximum – worked out at 2.5 mM in [7]; 15.7 mM in data set [8]; 2.5 mM in [9]; 15.7 mM in data set [10]; 3.1 mM in [11]; 3.1 mM in data set [12].
